Like-named read-outs stand apart in the source and are kept apart here.
How the values were obtained:
[1] = system: Phytophthora infestans; experiment: whole plant or invertebrate; assay type: in vivo; conditions: for Test B rating (100 = 100% disease control, 0 = no disease control relative to the controls): in vivo
[2] = system: Plasmopara viticola; conditions: in vivo
[3] = system: Phytophthora infestans; assay type: in vivo
[4] = tomato seedlings, sprayed to run-off 17 h after inoculation, application rate not given for unstarred values (40 ppm suspension mentioned)

| Compound | Test B rating (100 = 100% disease control, 0 = no disease control relative to the controls) [1] [%] | Test A rating (100 = 100% disease control, 0 = no disease control relative to the controls) [2] [%] | Test C rating (100 = 100% disease control, 0 = no disease control relative to the controls) ([3]; in vivo) [%] | Test C rating (100 = 100% disease control, 0 = no disease control relative to the controls) [3, 4] [%] | pest or weed control at 200 ppm ([1]; Phytophthora infestans, in Solanum lycopersicum, read-out: Test B rating (100 = 100% disease control, 0 = no disease control relative to the controls)) [%] |
| --- | --- | --- | --- | --- | --- |
| 1-[4-[4-[(hydroxyimino)phenylmethyl]-2-thiazolyl]-1-piperidinyl-2-[5-methyl-3-(trifluoromethyl)-1H-pyrazol-1-yl]ethanone [Compound 15] | 100 | 55 | – | – | – |
| 1-[4-[4-[(hydroxyimino)phenylmethyl]-2-thiazolyl]-1-piperidinyl-2-[5-methyl-3-(trifluoromethyl)-1H-pyrazol-1-yl]ethanone [Compound 16] | 89 | 0 | 0 | – | – |
| Cc1cc(C(F)(F)F)nn1CC(=O)N1CCC(c2nc(C=NO)cs2)CC1 [Compound 8, 4-[4-[(hydroxyimino)methyl]-2-thiazolyl]-1-[[5-methyl-3-(trifluoromethyl)-1H-pyrazol-1-yl]acetyl]piperidine] | – | 99 | – | 97 | – |
| CC(=NO)c1csc(C2CCN(C(=O)Cn3nc(C(F)(F)F)cc3C)CC2)n1 [Compound 10, 1-[4-[4-[1-(hydroxyimino)ethyl)-2-thiazolyl]-1-piperidinyl]-2-[5-methyl-3-(trifluoromethyl)-1H-pyrazol-1-yl]ethanone] | – | 71 | – | – | – |
| Cc1cc(C(F)(F)F)nn1CC(=O)N1CCC(c2nc(C(C=Cc3c(F)cccc3F)=NO)cs2)CC1 [Compound 11, 3-(2,6-difluorophenyl)-1-[2-[1-[2-[5-methyl-3-(trifluoromethyl)-1H-pyrazol-1-yl]acetyl]-4-piperidinyl]-4-thiazolyl]-2-propen-1-one 1-oxime] | – | 100 | – | 98 | – |
| Cc1cc(C(F)(F)F)nn1CC(=O)N1CCC(c2nc(C(CC(O[Si](C)(C)C(C)(C)C)c3c(F)cccc3F)=NO)cs2)CC1 (stereo not drawn) [Compound 12, 3-(2,6-difluorophenyl)-3-[[(1,1-dimethylethyl)dimethylsilyl]oxy]-1-[2-[1-[2-[5-methyl-3-(trifluoromethyl)-1H-pyrazol-1-yl]acetyl]-4-piperidinyl]-4-thiazolyl]-1-propanone 1-oxime] | – | 0 | – | – | 40 |
| Cc1cc(C(F)(F)F)nn1CC(=O)N1CCC(c2nc(C(CC(O)c3c(F)cccc3F)=NO)cs2)CC1 (stereo not drawn) [Compound 13, 3-(2,6-difluorophenyl)-3-hydroxy-1-[2-[1-[2-[5-methyl-3-(trifluoromethyl)-1H-pyrazol-1-yl]acetyl]-4-piperidinyl]-4-thiazolyl]-1-propanone 1-oxime] | – | 93 | – | 97 | – |
| CCOC(=O)/C(=N\O)c1csc(C2CCN(C(=O)Cn3nc(C(F)(F)F)cc3C)CC2)n1 [Compound 14] | – | 0 | – | 9 | – |
| CON=C(C=Cc1c(F)cccc1F)c1csc(C2CCN(C(=O)Cn3nc(C(F)(F)F)cc3C)CC2)n1 [Compound 19, 3-(2,6-difluorophenyl)-1-[2-[1-[2-[5-methyl-3-(trifluoromethyl)-1H-pyrazol-1-yl]acetyl]-4-piperidinyl]-4-thiazolyl]-2-propen-1-one 1-(O-methyloxime)] | – | 83 | – | – | – |
| Cc1cc(C(F)(F)F)nn1CC(=O)N1CCC(c2nc(C(CCc3c(F)cccc3F)=NO)cs2)CC1 [Compound 21, 3-(2,6-difluorophenyl)-1-[2-[1-[2-[5-methyl-3-(trifluoromethyl)-1H-pyrazol-1-yl]acetyl]-4-piperidinyl]-4-thiazolyl]-1-propanone 1-oxime] | – | 57 | – | – | – |
| Cc1cc(C(F)(F)F)nn1CC(=O)N1CCC(c2nc(C=NOC(C)c3ccccc3)cs2)CC1 (stereo not drawn) [Compound 22, 2-[1-[2-[5-methyl-3-(trifluoromethyl)-1H-pyrazol-1-yl]acetyl]-4-piperidinyl]-4-thiazolecarboxaldehyde 4-[O-(1-phenylethyl)oxime]] | – | 97 | – | – | – |
| CC(=O)ON=C(C=Cc1c(F)cccc1F)c1csc(C2CCN(C(=O)Cn3nc(C(F)(F)F)cc3C)CC2)n1 [Compound 23, 3-(2,6-difluorophenyl)-1-[2-[1-[2-[5-methyl-3-(trifluoromethyl)-1H-pyrazol-1-yl]acetyl]-4-piperidinyl]-4-thiazolyl]-2-propen-1-one 1-(O-acetyloxime)] | – | 99 | – | 99 | – |

— patent US8722678B2 (priority 2010, dated 2014)
